Experimental data reported in patent US20090275610A1, “TRICYCLIC OPIOID MODULATORS” (priority 2005, published 2009).
Like-named read-outs stand apart in the source and are kept apart here.

Columns and labels:
delta opioid receptor = molecular target: T1, delta opioid receptor (Rattus norvegicus, UniProt P33533); experiment: Rat brain delta opioid receptor binding assay; settings: rat forebrain membranes, [3H]DPDPE or [3H]naltrindole, 25° C., 2.5 h
T1 construct: the forebrains were homogenized in Tris buffer in a Teflon®-glass homogenizer; from tissue; host or cells: forebrain of male Wistar rats (particulate membrane preparation)
T1 sequence (P33533 whole entry): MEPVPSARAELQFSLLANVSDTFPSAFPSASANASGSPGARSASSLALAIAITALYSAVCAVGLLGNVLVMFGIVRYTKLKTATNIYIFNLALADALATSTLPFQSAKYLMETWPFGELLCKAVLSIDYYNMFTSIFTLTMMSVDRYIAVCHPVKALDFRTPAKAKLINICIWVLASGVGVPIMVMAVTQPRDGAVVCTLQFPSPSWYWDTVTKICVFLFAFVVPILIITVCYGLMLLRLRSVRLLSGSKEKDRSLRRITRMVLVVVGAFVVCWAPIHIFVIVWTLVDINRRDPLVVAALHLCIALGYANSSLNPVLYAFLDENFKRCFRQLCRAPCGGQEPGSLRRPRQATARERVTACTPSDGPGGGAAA
Procedure: Rat Brain Delta Opioid Receptor Binding Assay
(§1) Procedure: Male, Wistar rats (150-250 g, VAF, Charles River, Kingston, N.Y.) were killed by CO2, and their brains removed and placed immediately in ice cold Tris HCl buffer (50 mM, pH 7.4). The forebrains were separated from the remainder of the brain by a coronal transection, beginning dorsally at the colliculi and passing ventrally through the midbrain-pontine junction. After dissection, the forebrains were homogenized in Tris buffer in a Teflon®-glass homogenizer. The homogenate was diluted to a concentration of 1 g of forebrain tissue per 80 mL Tris and centrifuged at 39,000×g for 10 min. The pellet was resuspended in the same volume of Tris buffer containing 5 mM MgCl2 with several brief pulses from a Polytron homogenizer. This particulate preparation was used for the delta opioid binding assays.
(§2) Analysis: The data from the scintillation counter were used to calculate either the % inhibition compared to control binding (when only a single concentration of test compound was evaluated) or a Ki value (when a range of concentrations was tested). Percent inhibition was calculated as: [(total dpm−test compound dpm)/(total dpm−nonspecific dpm)]*100. Kd and Ki values were calculated using GraphPad PRISM data analysis program.

[1] = molecular target: T2, delta opioid receptor (NG108-15 cell membranes) (Mus musculus, UniProt P32300); experiment: [35S]GTPγS binding assay in NG108-15 cell membranes (delta opioid); assay type: biochemical
T2 construct: NG108-15 cell membranes were purchased from Applied Cell Sciences (Rockville, Md.); host or cells: NG108-15 cell membranes (purchased)
T2 sequence (P32300 whole entry): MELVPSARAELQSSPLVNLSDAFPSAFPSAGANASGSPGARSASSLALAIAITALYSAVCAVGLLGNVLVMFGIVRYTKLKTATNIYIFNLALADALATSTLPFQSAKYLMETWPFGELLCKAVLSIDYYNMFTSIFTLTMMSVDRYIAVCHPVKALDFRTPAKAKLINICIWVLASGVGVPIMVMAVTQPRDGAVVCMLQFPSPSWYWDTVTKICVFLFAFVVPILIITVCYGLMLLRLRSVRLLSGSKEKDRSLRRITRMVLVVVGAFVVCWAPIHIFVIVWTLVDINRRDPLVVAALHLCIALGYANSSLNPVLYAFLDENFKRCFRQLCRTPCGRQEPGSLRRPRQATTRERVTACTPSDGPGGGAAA
Procedure: Functional Assay: [^35S]GTPγS Binding Assay in NG108-15 Cell Membranes (Delta Opioid)
Methods: NG108-15 cell membranes were purchased from Applied Cell Sciences (Rockville, Md.). A sample (8 mg/mL) of membrane protein suspended in 10 mM TRIS-HCl pH 7.2, 2 mM EDTA, 10% sucrose. Membranes were maintained at 4-8° C. A 1 mL volume of membranes was added into 10 mL cold binding assay buffer. The assay buffer contained 50 mM Tris, pH 7.6, 5 mM MgCl2, 100 mM NaCl, 1 mM DTT and 1 mM EGTA. The membrane suspension was homogenized twice with a Polytron, and centrifuged at 3000 rpm for 10 min. The supernatant was then centrifuged at 18,000 rpm for 20 min. Ten mL assay buffer was added into the pellet containing tube. The pellet and buffer were mixed with a Polytron.
Incubation procedure: The pellet membranes (75 μg/mL) were preincubated with SPA (10 mg/mL) at 25° C. for 45 min in the assay buffer. The SPA (5 mg/mL) coupled with membranes (37.5 μg/mL) was then incubated with 0.1 nM [^35S]GTPγS in the same Tris buffer containing 100 μM GDP in total volume of 200 μL. Increasing concentrations of receptor agonists were used to stimulate [^35S]-GTPγS binding. The basal binding was tested in the absence of agonists and non-specific binding was tested in the presence of 10 μM unlabeled GTPγS. The data were analyzed on a Packard Top Count.
% of Basal=(stimulated−non specific)*100/(basal−non specific).
(§3) EC50 values were calculated using GraphPad Prism.

[2] = molecular target: T3, hMOR (CHO-hMOR cell membranes) (Homo sapiens, UniProt P35372); experiment: [35S]GTPγS binding assay in CHO-hMOR cell membranes; assay type: biochemical
T3 construct: host or cells: CHO cells expressing hMOR (purchased membranes)
T3 sequence (P35372 whole entry): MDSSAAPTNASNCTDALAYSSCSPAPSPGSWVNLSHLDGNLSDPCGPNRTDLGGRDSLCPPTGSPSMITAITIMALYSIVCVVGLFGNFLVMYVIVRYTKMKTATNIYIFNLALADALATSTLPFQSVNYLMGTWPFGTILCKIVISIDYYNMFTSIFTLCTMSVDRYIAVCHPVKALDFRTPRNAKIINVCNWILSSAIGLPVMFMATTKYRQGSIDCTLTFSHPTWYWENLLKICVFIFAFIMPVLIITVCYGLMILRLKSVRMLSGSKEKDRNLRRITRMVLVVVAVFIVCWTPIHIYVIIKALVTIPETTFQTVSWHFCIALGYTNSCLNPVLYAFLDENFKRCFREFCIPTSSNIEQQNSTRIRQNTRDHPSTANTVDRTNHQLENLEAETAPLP
Procedure: Functional Assay: [^35S]GTPγS Binding Assays in CHO-hMOR Cell Membranes
Methods: CHO-hMOR cell membranes were purchased from Receptor Biology, Inc. (Baltimore, Md.). About 10 mg/mL of membrane protein was suspended in 10 mM TRIS-HCl pH 7.2, 2 mM EDTA, 10% sucrose, and the suspension kept on ice. A 1 mL volume of membranes was added to 15 mL cold binding assay buffer containing 50 mM HEPES, pH 7.6, 5 mM MgCl2, 100 mM NaCl, 1 mM DTT and 1 mM EDTA. The membrane suspension was homogenized with a Polytron and centrifuged at 3,000 rpm for 10 min. The supernatant was then centrifuged at 18,000 rpm for 20 min. The pellet was resuspended in 10 mL assay buffer with a Polytron. The membranes were preincubated with wheat germ agglutinin coated SPA beads (Amersham) at 25° C. for 45 min in the assay buffer. The SPA bead (5 mg/mL) coupled membranes (10 μg/mL) were then incubated with 0.5 nM [^35S]GTPγS in the assay buffer. […] A range of concentrations of receptor agonist was used to stimulate [^35S]GTPγS binding. Both basal and non-specific binding was tested in the absence of agonist; non-specific binding determination included 10 μM unlabeled GTPγS.
Compounds were tested for function as antagonists by evaluating their potential to inhibit agonist-stimulated GTPγS binding. Radioactivity was quantified on a Packard TopCount. The following parameters were calculated:
as §3

mu opioid receptor = molecular target: T4, mu opioid receptor (Rattus norvegicus, UniProt P33535); experiment: Rat brain mu opioid receptor binding assay; settings: rat forebrain membranes, [3H]DAMGO, 25° C., 2.5 h
T4 construct: the forebrains were homogenized in Tris buffer in a Teflon®-glass homogenizer; from tissue; host or cells: forebrain of male Wistar rats (particulate membrane preparation)
T4 sequence (P33535 whole entry): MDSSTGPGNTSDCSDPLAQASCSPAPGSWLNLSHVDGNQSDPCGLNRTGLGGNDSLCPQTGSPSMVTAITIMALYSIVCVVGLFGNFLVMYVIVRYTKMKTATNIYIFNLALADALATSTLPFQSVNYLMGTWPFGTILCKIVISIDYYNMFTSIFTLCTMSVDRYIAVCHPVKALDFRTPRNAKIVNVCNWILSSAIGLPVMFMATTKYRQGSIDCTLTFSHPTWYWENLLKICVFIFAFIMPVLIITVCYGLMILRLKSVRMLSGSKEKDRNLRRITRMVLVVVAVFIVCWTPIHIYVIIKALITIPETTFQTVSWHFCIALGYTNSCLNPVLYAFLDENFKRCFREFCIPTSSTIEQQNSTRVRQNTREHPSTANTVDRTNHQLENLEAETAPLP
Procedure: Rat Brain Mu Opioid Receptor Binding Assay
as §1
as §2, with “concentrations” for “concentrations was”

[3] = rDOR (Ki, nM): Rat delta opioid receptor binding constant
[4] = rMOR (Ki, nM): Rat mu opioid receptor binding constant
[5] = read-out: rDOR (Ki, nM): Rat delta opioid receptor binding constant
[6] = read-out: delta GTPγS binding EC50
[7] = CHO-hMOR cell membranes, read-out: mu GTPγS binding EC50
[8] = read-out: rMOR (Ki, nM): Rat mu opioid receptor binding constant

Compound | Ki (delta opioid receptor; [3]) | EC50 ([1]; delta GTPγS binding EC50 (nM)) | EC50 [2] | Ki (mu opioid receptor; [4]) | Ki (delta opioid receptor; [5]) | EC50 [1, 6] | EC50 [2, 7] | Ki (mu opioid receptor; [8])
Oc1cccc2c1Oc1ccccc1C2=C1CC2CCC(C1)N2Cc1ccccn1 [Cpd 21, 9-(8-pyridin-2-ylmethyl-8-azabicyclo[3.2.1]oct-3-ylidene)-9H-xanthen-4-ol] | 0.007 nM | 21.8 nM | > 10000 nM | 0.1 nM | – | – | – | –
Oc1cccc2c1Oc1ccccc1C2=C1CC2CCC(C1)N2Cc1ccncc1 [Cpd 22] | – | – | – | – | 0.97 nM | 2720 nM | > 10000 nM | 358 nM
Oc1cc(CN2C3CCC2CC(=C2c4ccccc4Oc4c(O)cccc42)C3)ccn1 [Cpd 23] | – | – | – | – | 1.5 nM | 52.8 nM | 12400 nM | 2.18 nM
Oc1cccc2c1Oc1ccccc1C2=C1CC2CCC(C1)N2Cc1cccs1 [Cpd 24] | – | – | – | – | 0.046 nM | 6.05 nM | > 10000 nM | 1.58 nM
Oc1cccc2c1Oc1ccccc1C2=C1CC2CCC(C1)N2Cc1ccoc1 [Cpd 25, 9-(8-Furan-3-ylmethyl-8-aza-bicyclo[3.2.1]oct-3-ylidene)-9H-xanthen-4-ol] | 0.26 nM | 1.08 nM | 2810 nM | 0.56 nM | – | – | – | –
Oc1cccc2c1Oc1ccccc1C2=C1CC2CCC(C1)N2CC1CC1 [Cpd 26] | – | – | – | – | 5.43 nM | 194 nM | > 10000 nM | 65.9 nM
CC=C(C)CN1C2CCC1CC(=C1c3ccccc3Oc3c(O)cccc31)C2 [Cpd 27] | – | – | – | – | 0.35 nM | 9.8 nM | > 10000 nM | 2.03 nM
Oc1cccc2c1Oc1ccccc1C2=C1CC2CCC(C1)N2Cc1c[nH]c(-c2ccccc2)n1 [Cpd 28] | – | – | – | – | 192 nM | 1380 nM | > 10000 nM | 58.5 nM
Oc1cccc2c1Oc1ccccc1C2=C1CC2CCC(C1)N2CCc1ccccc1 [Cpd 30] | – | – | – | – | 63.5 nM | 2960 nM | > 10000 nM | 27.7 nM
Oc1cccc2c1Oc1ccccc1C2=C1CC2CCC(C1)N2Cc1cccnc1 [Cpd 31, 9-(8-pyridin-3-ylmethyl-8-azabicyclo[3.2.1]oct-3-ylidene)-9H-xanthen-4-ol] | 0.028 nM | – | – | 1.23 nM | – | 134 nM | 8090 nM | –
Oc1cccc2c1Oc1ccccc1C2=C1CC2CCC(C1)N2Cc1ccccc1 [Cpd 32, 9-(8-benzyl-8-azabicyclo[3.2.1]oct-3-ylidene)-9H-xanthen-4-ol] | 0.023 nM | 28.6 nM | > 10000 nM | 0.29 nM | – | – | – | –
Oc1cccc2c1Oc1ccccc1C2=C1CC2CCC(C1)N2Cc1ncc[nH]1 [Cpd 34] | – | – | – | – | 0.028 nM | 3.33 nM | 1610 nM | 0.53 nM
